Assay results: patent publication US20160208339A1, “BIOMARKERS CORRELATED TO PARP INHIBITOR TREATMENT SUCCESS IN AML PATIENTS” (KING'S COLLEGE LONDON, priority 2013, published 2016)

Key:
[1] = system: PML-RARα transformed cells; assay: Clonogenic assay in methylcellulose, RTTA-transformed primary leukaemic cells; type: cell-based, mouse
Description: (§1) FIG. 2 AML1-ETO and PML-RARα leukemic cells are sensitive to PARPi. A) Representative scheme of experimental procedures. B) Non linear regression dose response curve. Normal bone marrow c-kit cells and pre-leukaemic cells expressing the oncofusion proteins AML1-ETO, E2A-PBX, MLL-AF9 and PML-RARα were grown in methylcellulose for 7 days with escalating doses of PARPi. Data representative of three independent experiments are shown. C) Percentage of survival of preleukemic cells to PARPi. The number of colonies surviving to seven days incubation with PARPi treatment was normalized against the untreated control. Data representative of six independent experiments are shown ±SD. […] D) Colony morphology (phase contrast microscopy, magnification 40×). Representative pictures are shown. E) Efficiency of PARP1 Knock down (KD) in NIH3T3 cells infected with retroviral vectors expressing shRNA against mouse PARP1. qPCR data showing expression of PARP1 mRNA in NIH3T3 after infection with sh-mPARP1. Data representative of two independent experiments are shown ±SD. Paired two-tailed t test was performed between empty vector and i) scramble, ii) sh-PARP1-A and iii) sh-PARP1-D*p<0.05. F) Efficiency of PARP1 by Western Blot. Western Blot data showing protein level of PARP1 in NIH3T3 after infection with sh-mPARP1. G) Efficiency of PARP1 KD in leukemic cells infected with retroviral vectors expressing shRNA against mouse PARP1. qPCR data showing expression of PARP1 mRNA in leukemic cells after infection with sh-mPARP1. Data representative of three independent experiments are shown ±SD. 2-way Anova test was performed between empty vector and i) scramble, ii) sh-PARP1-A and iii) sh-PARP1-D*p<0.05, **p<0.01, ***p<0.001. H) Relative number of colonies arisen from leukemic cells transformed by indicated oncoproteins after shPARP1-mediated KD. Bone marrow cells were co-transduced with retroviral vectors carrying the oncogene of interest and empty vector or sh-scramble or shPARP1. The number of colonies was normalized against the empty vector control. Data representative of three independent experiments are shown ±SD. 2-way Anova test was performed between empty vector and i) scramble, ii) sh-PARP1-A and iii) sh-PARP1-D*p<0.05, **p<0.01, ***p<0.001. I) Colony morphology from phase contrast microscopy (magnification 40×). Representative pictures are shown. […] The number of colonies after PARPi treatment was normalized against the untreated control. Data representative of three independent experiments are shown ±SD. […] K) Colony morphology (phase contrast microscopy, magnification 20×). Representative pictures are shown. […] The number of colonies after PARPi treatment was normalized against the untreated control. Data representative of three independent experiments are shown ±SD. […] M) Colony morphology (phase contrast microscopy, magnification 20×). Representative pictures are shown. […] The number of colonies after PARPi treatment was normalized against the untreated control. Data representative of three independent experiments are shown ±SD. […] O) Colony morphology (phase contrast microscopy, magnification 20×). Representative pictures are shown.
(§2) Briefly, c-kit positive progenitor cells of wild type Ly5.1 mouse bone marrow transduced with a retroviral vector expressing the LATFs of interest were plated into a methylcellulose medium supplemented with appropriate myeloid cytokines. Replating was performed every week to generate primary cell lines for further analysis. […] Veliparib is an inhibitor of PARP1/2 produced by Abbott and widely used in clinical trials.

[2] = system: AML1-ETO transformed cells; assay: as above; type: cell-based, mouse
Description: as §1, §2

[3] = system: MLL-AF9 transformed cells; assay: as above; type: cell-based, mouse; details: 1 μM, methylcellulose 7 days
Description: as §1, §2

[4] = system: E2A-PBX transformed cells; assay: as above; type: cell-based, mouse; details: 1 μM, methylcellulose 7 days
Description: as §1, §2

[5] = system: Kasumi human cells expressing the oncogene AML1-ETO; assay: Survival of NSG mice injected intra-femur with Kasumi human cells; type: in vivo
Description: (§3) A) Kaplan-Meier survival curve relative to NSG mice injected with NB4 human cells. NB4 human cells expressing the oncogene PML-RARα were injected intravenously in NSG mice and distributed in two groups. […] Treatment was performed for two weeks. Mice were monitored daily until the development of symptoms of leukaemia, when bone marrow (B), spleen (C) and liver (D) were harvested, processed, stained with PE-conjugated antibody against human CD33 and analysed by FACS, to quantify the human cell engraftment in these organs. E) Kaplan-Meier survival curve relative to NSG mice injected with Kasumi human cells. Kasumi human cells expressing the oncogene AML1-ETO were injected intra-femur in NSG mice and distributed in two groups. […] Treatment was performed for two weeks. Mice were monitored daily until the development of symptoms of leukaemia, when bone marrow (F), spleen (G) and liver (H) were harvested, processed, stained with PE-conjugated antibody against human CD33 and analysed by FACS, to quantify the human cell engraftment in these organs. I) and J Kaplan-Meier survival curves of FVB and C57Bl/6 mice injected with M4-PML-RARα and MLL-AF9 cells, respectively. ATRA resistant M4-PML-RARα cells were injected intravenously in FVB mice and distributed in three groups. […] Mice were monitored daily until the development of symptoms of leukaemia, when bone marrow (K), spleen (L) and liver (M) were harvested, processed, stained with PE-conjugated antibody against mouse Gr1 and analysed by FACS, to quantify the human cell engraftment in these organs. […]
(§4) In order to test the efficacy of this treatment in vivo, we transplanted Kasumi and NB4 cell lines into a small cohort of sublethally irradiated NOD/SCID/IL2Rg−/− (NSG) mice by intra-femoral and intravenous injection, respectively. […] The maximum dose tolerated was calculated by in vivo dose-response experiments. Mice were monitored daily until they developed symptoms of leukaemia, when they were culled and bone marrow, spleen and liver harvested and analyzed by FACS. […]

bone marrow c-kit+ cells = assay: PARPi titration, colony assay in methylcellulose, normal bone marrow cells; type: cell-based; details: Mus musculus, Bone marrow cell, 168 h; colonies counted after seven days in methylcellulose; nonlinear regression
Description: FIG. 1 PARPi titration. A) PARPi titration in normal bone marrow c-kit cells grown in methylcellulose for 7 days. Data representative of three independent experiments are shown ±SD. […] B) Non linear regression dose response curve, obtained by logarithmic transformation of the data presented in the panel A. C) Colony morphology (contrast microscopy magnification 40×). Representative pictures are shown.
Bone marrow cells were treated with escalating doses of Olaparib in methylcellulose. After seven days colonies were counted. The number of colonies obtained in the untreated condition was set as the top value (100%). The bottom value (0) was calculated as the lowest concentration resulting in no colonies. The data where then analyzed in a nonlinear regression dose-response curve (FIG. 1).

[6] = system: untargeted population of ovarian cancer; details: phase II; cited from earlier work
NB4 = assay: Colony assay in methylcellulose, human cell line; type: cell-based; details: Olaparib 1-5 μM, methylcellulose 7 days
Description: (§5) FIG. 2 AML1-ETO and PML-RARα leukemic cells are sensitive to PARPi. A) Representative scheme of experimental procedures. B) Non linear regression dose response curve. Normal bone marrow c-kit cells and pre-leukaemic cells expressing the oncofusion proteins AML1-ETO, E2A-PBX, MLL-AF9 and PML-RARα were grown in methylcellulose for 7 days with escalating doses of PARPi. Data representative of three independent experiments are shown. C) Percentage of survival of preleukemic cells to PARPi. The number of colonies surviving to seven days incubation with PARPi treatment was normalized against the untreated control. Data representative of six independent experiments are shown ±SD. […] D) Colony morphology (phase contrast microscopy, magnification 40×). Representative pictures are shown. E) Efficiency of PARP1 Knock down (KD) in NIH3T3 cells infected with retroviral vectors expressing shRNA against mouse PARP1. qPCR data showing expression of PARP1 mRNA in NIH3T3 after infection with sh-mPARP1. Data representative of two independent experiments are shown ±SD. Paired two-tailed t test was performed between empty vector and i) scramble, ii) sh-PARP1-A and iii) sh-PARP1-D*p<0.05. F) Efficiency of PARP1 by Western Blot. Western Blot data showing protein level of PARP1 in NIH3T3 after infection with sh-mPARP1. […]

Kasumi = assay: Colony assay in methylcellulose, human cell line; type: cell-based; details: Olaparib 1-5 μM, methylcellulose 7 days
Description: as §5

[7] = system: NB4 human cells expressing the oncogene PML-RARα; assay: Survival of NSG mice injected intravenously with NB4 human cells; type: in vivo
Description: as §3, §4

[8] = system: ATRA resistant M4-PML-RARα cells; assay: ATRA resistant mouse model, FVB mice injected with M4-PML-RARα cells; type: in vivo; details: Olaparib 50 mg/kg intra-peritoneal daily for two weeks
Description: as §3, with “organs.” for “organs. I) and J Kaplan-Meier survival curves of FVB and C57Bl/6 mice injected with M4-PML-RARα and MLL-AF9 cells, respectively. ATRA resistant M4-PML-RARα cells were injected intravenously in FVB mice and distributed in three groups.”

MLL-AF9 cells = assay: C57Bl/6 mice injected with leukaemic MLL-AF9 cells; type: in vivo; details: Olaparib 50 mg/kg intra-peritoneal daily for two weeks
Description: as §3, with “organs.” for “organs. I) and J Kaplan-Meier survival curves of FVB and C57Bl/6 mice injected with M4-PML-RARα and MLL-AF9 cells, respectively. ATRA resistant M4-PML-RARα cells were injected intravenously in FVB mice and distributed in three groups.”

[9] = system: breast, prostate and ovarian cancer patients carrying mutations in BRCA1 or BRCA2 genes; details: phase I and phase II trials; cited from earlier work
NB4-LR2 = assay: Colony assay in methylcellulose, ATRA resistant APL cell model; type: cell-based, human; details: Olaparib 5 μM, methylcellulose 7 days
Description: as §5

NB4-MR2 = assay: as above; type: cell-based, human; details: Olaparib 5 μM, methylcellulose 7 days
Description: as §5

[10] = Olaparib 25 mg/kg daily for two weeks, FACS human CD33
[11] = Olaparib 25 mg/kg intra-peritoneal daily for two weeks

Question: Which results are given for `C[C@]1(c2nc3c(C(N)=O)cccc3[nH]2)CCCN1` [Veliparib, 2-((R)-2-methylpyrrolidin-2-yl)-1H-benzimidazole-4-carboxamide]?
Answer: effect on colonies ([1]; 1 μM, methylcellulose 7 days): reduced colonies; effect on colonies ([2]; 1 μM, methylcellulose 7 days): reduced colonies; effect on colonies [3]: no effect; effect on colonies [4]: no effect

Question: With `O=C(c1cc(Cc2n[nH]c(=O)c3ccccc23)ccc1F)N1CCN(C(=O)C2CC2)CC1` [Olaparib, 4-[(3-[(4-cyclopropylcarbonyl)piperazin-4-yl]carbonyl)-4-fluorophenyl]methyl(2H)-phthalazin-1-one] as the compound, how does the IC50 ([1]; Mus musculus, 168 h) read?
Answer: 15.8 nM

Question: And the “reduction in colony forming ability” value ([1]; Olaparib 1 uM, p<0.05)?
Answer: 70-90%

Question: What about the IC50 ([2]; Mus musculus, 168 h) of the same compound?
Answer: 33.4 nM

Question: And the “reduction in colony forming ability” value ([2]; Olaparib 1 uM, p<0.05)?
Answer: 70-90%

Question: What about the “reduction of number of colonies after additional replating” value ([2]; replating in semi-solid medium containing Olaparib, p<0.05) of the same compound?
Answer: 90%

Question: And the “engraftment in bone marrow, spleen and liver” value [5, 10]?
Answer: variable reduction

Question: And the “onset of the leukaemia” value [5, 11]?
Answer: significantly delayed

Question: And the median survival ([5]; Olaparib 25 mg/kg intra-peritoneal daily for two weeks, control 50 days, experiment still ongoing)?
Answer: 115 days

Question: What about the IC50 (bone marrow c-kit+ cells) of the same compound?
Answer: 1900 nM

Question: And the “overall survival benefit compared to chemotherapy” value [6]?
Answer: failed to show overall survival benefit

Question: And the “efficacy on colony number” value (NB4)?
Answer: confirm the efficacy

Question: What about the “efficacy on colony number” value (Kasumi) of the same compound?
Answer: confirm the efficacy

Question: And the “engraftment in bone marrow, spleen and liver” value [7, 10]?
Answer: variable reduction

Question: What about the “onset of the leukaemia” value [7, 11] of the same compound?
Answer: significantly delayed

Question: What about the median survival ([7]; Olaparib 25 mg/kg intra-peritoneal daily for two weeks, control 30 days) of the same compound?
Answer: 47 days

Question: And the “onset of the leukaemia” value [8]?
Answer: significantly delayed

Question: What about the “effect on mice developing leukaemia” value (MLL-AF9 cells) of the same compound?
Answer: did not have any significant effect

Question: And the anti-tumour effect [9]?
Answer: anti-tumour effect

Question: What about the side effects [9] of the same compound?
Answer: grade 1 or 2

Question: And the “sensitivity (colony number)” value (NB4-LR2)?
Answer: extremely sensitive

Question: And the “sensitivity (colony number)” value (NB4-MR2)?
Answer: extremely sensitive
